In patent publication US20230372361A1, “USE OF OXYGENATED CHOLESTEROL SULFATES FOR TREATING INFLAMMATORY CONDITIONS” (Durect Corporation, priority 2020, published 2023):
Where two headings read alike, the source gives them in different places.

How the values were obtained:
[1] = Excretion mass balance, single intravenous dose; type: in vivo, male Sprague Dawley rats; conditions: iv 10 mg/kg; over 168 hours
Method: (§1) Nine male Sprague Dawley rats (Group 1) were designated for the pharmacokinetic phase, 3 male Sprague Dawley rats (Group 2) for the excretion mass balance phase, and 7 male Sprague Dawley rats (Group 3) and 9 male Long Evans rats (Group 4) for the tissue distribution phase. All animals received a single intravenous dose of [^14C]-25HC3S at 10 mg/kg and a target radioactivity of 225 μCi/kg. Blood samples were collected from all Group 1 animals at approximately 0.083, 0.25, 0.5, 1, 2, 4, 8, 12, 24, 48, and 72 hours post-dose. Urine and feces were collected from all Group 2 animals periodically through 168 hours post-dose. […] Following blood collection, animals were euthanized by CO2 inhalation and carcasses frozen in a dry ice/hexane bath for processing by quantitative whole body autoradiography. Whole blood, plasma, urine, feces, cage rinse, and cage wash were analyzed for total radioactivity by liquid scintillation counting.

Huh-7 cells = assay: Real-time RT-PCR of key gene expression; type: cell-based, human; conditions: 6.25-50 μM, 1-8 hours
Method: FIGS. 3A-3D. Expression of key genes related to signaling pathways. […] Key Genes and their targeting genes expression were determined by RT-PCR analysis. […] Each sample, 2 was sent to […], Inc. (Hopkinton, MA) for analysis of global methylation bisulfite sequencing. The same samples, 6 μg, were sent to Novogene Co., Ltd (Tianjin, China) for analysis of whole genome bisulfite sequencing (WGBS). Total RNA was isolated using the Promega SV total RNA isolation system (Madison, WI) with DNase treatment. […] Real-time RT-PCR was performed using SYBR Green as the indicator on ABI 7500 Fast Real-Time PCR System (Applied Biosystems, Foster City, CA). Amplifications of β-actin or GAPDH were used as internal controls. Relative messenger RNA (mRNA) expression was quantified with the comparative cycle threshold (Ct) method using the primer set shown in Table 1.1 and was expressed as 2^-ΔΔct.

[2] = Metabolite profiling of plasma and feces after oral dose (radio-HPLC, HPLC/MS); set-up: species or system rats; conditions: Sprague Dawley, rat, in vivo, 75 mg/kg
Method: Radiolabeled components in plasma and feces extracts were profiled and identified using radio-high performance liquid chromatography (HPLC) and high performance liquid chromatography/mass spectrometry (HPLC/MS) methods.
Plasma pools were prepared for Group 1 (75 mg/kg, [14C]-25HC3S) samples collected at 2, 4, and 6 hours post-dose. […] One metabolite M29 was identified as 25-hydroxycholesterol with 37% ROI and a concentration of 1233 ng-equiv./g.
Feces pools were prepared for Group 2 (75 mg/kg, [^14C]-25HC3S) samples collected from 0 to 24, 24 to 48, 48 to 72, 72 to 96, 96 to 120, 120 to 144, and 144 to 168 hours post-dose. A total of eleven metabolites were identified. None of the metabolites were present at ≥5% of dose. Metabolites present at 2-5% of dose were M1(4.5% of total dose and 1%-69% ROI), M3 (4.6% of total dose and 1%-44% ROI), M4 (2.0% of total dose and 0%-10% ROI), M8 (3.1% of total dose and 1%-46% ROI), M29 (1.9% of total dose and 0%-2% ROI), and M30 (3.3% of total dose and 0%-5% ROI).

[3] = rat, in vivo, po, 75 mg/kg
Method: Pancreas and liver concentrations ranged from 23,500 ng equiv./g to 28,100 ng equiv./g. Uveal tract and brain concentrations were lowest relative to the other tissues and were approximately 1000 ng equiv./g. Skin, thymus, prostate, and pituitary tissue concentrations were <3000 ng equiv./g. Remaining tissues had concentrations between 3600 ng-equiv./g and 10,700 ng equiv./g. […] As calculated using AUClast, the tissue:plasma ratios were highest for the small intestine (wall, 15.4) followed by the liver and adrenal gland at 6.96 and 6.64, respectively. High liver and small intestine concentrations are consistent with oral administration and biliary (fecal) excretion.

[4] = Tissue distribution by quantitative whole body autoradiography, intravenous; type: in vivo, male Sprague Dawley rats; conditions: iv 10 mg/kg
Method: as §1

[5] = set-up: species or system rats; conditions: Sprague Dawley, rat, in vivo, po, 75 mg/kg
[6] = Plasma pharmacokinetics of radioactivity, single intravenous dose; type: in vivo, male Sprague Dawley rats; conditions: single intravenous (bolus) dose 10 mg/kg; total radioactivity
Method: as §1

With `C[C@H](CCCC(C)(C)O)[C@H]1CC[C@H]2[C@@H]3CC=C4C[C@@H](OS(=O)(=O)O)CC[C@]4(C)[C@H]3CC[C@]12C` [25HC3S, 25-hydroxycholesterol-3-sulfate] the “dose recovered in urine, feces, and cage rinse” value [1] was “approximately 100.2 % of the dose”, the “recovered radioactivity in feces” value [1] was 83.0% and the “decrease of FAS gene expression” value (Huh-7 cells) was roughly 90%. The “decrease of HMGR gene expression” value (Huh-7 cells) was roughly 90%, the “increase of CREB5 expression” value (Huh-7 cells) was “up to 20 fold” and the “increase of DUSP8 expression” value (Huh-7 cells) was 5 fold. For the same compound, the “increase of PGC1A expression” value (Huh-7 cells) was 12 fold, the ROI in feces [2] was 0-88% and the amount in feces [2] was 71.1 % of total dose. For the same compound, the “tissue:plasma ratio, adrenal gland” value ([3]; male, Sprague Dawley) was 6.64, the “tissue:plasma ratio, liver” value ([3]; male, Sprague Dawley) was 6.96 and the “tissue:plasma ratio, small intestine (wall)” value ([3]; male, Sprague Dawley) was 15.4. The “Cmax in small intestine (wall)” value [3] was 424,000 ng equiv./g, the “Cmax in stomach (wall)” value [3] was 204,000 ng equiv./g and the “tissue concentrations by 168 hours post-dose” value [3] was “near or below the quantitation limit in all tissues except adrenal gland and liver”. The “tissue distribution of parent and/or metabolites” value [3] was “broadly distributed and detected by quantitative whole body autoradiography in all tissues except the eye (lens)”, the “whole blood AUClast” value [3] was 127,000 h·ng equiv./g and the “plasma:whole blood AUClast ratio” value [4] was 0.79. The “tissue concentrations by 168 hours post-dose” value [4] was “below quantitation limit in all tissues except adrenal gland, harderian gland, liver, and small intestine”, the “tissue distribution of parent and/or metabolites” value ([4]; Group 3) was “broadly distributed and detected by quantitative whole body autoradiography in all tissues except the eye (lens)” and the “tissue:plasma ratio, liver” value ([4]; calculated using AUClast) was 11.4. For the same compound, the “tissue:plasma ratio, small intestine (wall)” value ([4]; calculated using AUClast) was 7.44, the AUClast in liver ([4]; derived radioactivity) was ≤ 364,000 h·ng/g and the “dose recovered in urine, feces, and cage rinse” value [5] was “approximately 94.5 % of the dose”. For the same compound, the “mean plasma C0” value [6] was 25,900 ng-equiv./g.
